# Data reported in patent publication US20030055072A1, “Methods of inhibiting Pin1-associated states using a fredericamycin a compound” (priority 2000, published 2003).
# Like-named read-outs stand apart in the source and are kept apart here.
# Columns and labels:
# DU-145 prostate tumor = assay: tumor growth in scid mouse human prostate tumor model; type: in vivo, scid mice
# hFKBP12 = molecular target: T1, hFKBP12 (Homo sapiens, UniProt P62942); assay: protease-coupled PPIase assay, hFKBP12; type: biochemical
# T1 construct: purchased Sigma
# T1 sequence (P62942 whole entry): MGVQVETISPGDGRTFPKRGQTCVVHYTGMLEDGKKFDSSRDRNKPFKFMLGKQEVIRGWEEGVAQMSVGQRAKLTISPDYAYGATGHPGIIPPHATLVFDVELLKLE
# Protocol: (§1) PPIase activity measurements were performed by the protease-coupled PPIase assay developed by Fischer et al. (1984). For hPin1 activity measurements, bovine trypsin (final concentration 0.21 mg/mL, Sigma) was used as an isomer-specific protease and Ac-Ala-Ala-Ser(P)-Pro-Arg-pNA (Jerini, Germany) as a substrate. PPIase activity of hFKBP12 (Sigma) and hCyp18 (Sigma) was determined with the peptide substrate Suc-Ala-Phe-Pro-Phe-pNA (Bachem) and the protease α-chymotrypsin (final concentration 0.41 mg/mL, Sigma). The test was performed by observing the released 4-nitroanilide at 390 nm with a Hewlett-Packard 8453 UV-vis spectrophotometer at 10° C. The total reaction volume was adjusted to 1.23 mL by mixing appropriate volumes of 35 mM HEPES (pH 7.8) with enzyme and effector solutions. […] The pseudo-first-order rate constant kobs for cis/trans isomerization in the presence of PPlase and the first-order rate constant k0 of the unkatalyzed cis/trans isomerization were calculated using the Kinetics Software of Hewlett-Packard as well as SigmaPlot2000 for Windows 6.0 (SPSS). The Ki value for inhibition of hPin1 PPIase activity by fredericamycin A at constant concentrations of substrate ([S0]<<KM) was calculated by fitting the data according to the equation for a competitive “tight-binding” inhibitor using SigmaPlot2000.
# hPin1 = hPin1 (Homo sapiens, UniProt Q13526); assay: protease-coupled PPIase assay, hPin1; type: biochemical
# Chain of hPin1 (Q13526 whole entry): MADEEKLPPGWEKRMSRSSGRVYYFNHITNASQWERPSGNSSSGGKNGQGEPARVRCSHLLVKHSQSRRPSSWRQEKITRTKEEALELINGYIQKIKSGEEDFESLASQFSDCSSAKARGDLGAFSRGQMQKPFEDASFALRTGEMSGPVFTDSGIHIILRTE
# Protocol: PPIase activity measurements were performed by the protease-coupled PPIase assay developed by Fischer et al. (1984). For hPin1 activity measurements, bovine trypsin (final concentration 0.21 mg/mL, Sigma) was used as an isomer-specific protease and Ac-Ala-Ala-Ser(P)-Pro-Arg-pNA (Jerini, Germany) as a substrate. PPIase activity of hFKBP12 (Sigma) and hCyp18 (Sigma) was determined with the peptide substrate Suc-Ala-Phe-Pro-Phe-pNA (Bachem) and the protease α-chymotrypsin (final concentration 0.41 mg/mL, Sigma). The test was performed by observing the released 4-nitroanilide at 390 nm with a Hewlett-Packard 8453 UV-vis spectrophotometer at 10° C. The total reaction volume was adjusted to 1.23 mL by mixing appropriate volumes of 35 mM HEPES (pH 7.8) with enzyme and effector solutions. Fredericamycin A (BioLeads, Germany) was freshly diluted from a 1 mg/mL stock solution in DMSO. If not otherwise indicated, fredericamycin A (0-6 μM) was pre-incubated with the enzyme for 5 min (10° C.). Prior to the start of reaction by addition of the respective protease, 2 μL of the peptide substrate stock solution (10 mg/mL in DMSO) were added. The amount of organic solvent was kept constant within each experiment (<0.1%). The pseudo-first-order rate constant kobs for cis/trans isomerization in the presence of PPlase and the first-order rate constant k0 of the unkatalyzed cis/trans isomerization were calculated using the Kinetics Software of Hewlett-Packard as well as SigmaPlot2000 for Windows 6.0 (SPSS). The Ki value for inhibition of hPin1 PPIase activity by fredericamycin A at constant concentrations of substrate ([S0]<<KM) was calculated by fitting the data according to the equation for a competitive “tight-binding” inhibitor using SigmaPlot2000.
# FIG. 1: Ki value for hPin1 PPlase activity inhibition by fredericamycin A. PPIase activity measurements were performed as described in Materials and Methods. 6.0 nM of Pin1 were pre-incubated with 0-4.8 μM fredericamycin A in 35 mM HEPES (pH 7.8) at […] for 5 min. Ac-Ala-Ala-Ser(P)-Pro-Arg-pNA (21.9 μM) was used as a substrate. Reactions were started by addition of trypsin.
# FIG. 2: Time dependency of Pin1 PPIase activity inhibition by fredericamycin A. PPIase activity measurements were performed as described in Materials and Methods. 6.0 nM hPin1 was incubated for 0, 5, 10, 15, 20, 25 and 30 min with 0 (●) and 1 μM (♦) fredericamycin, respectively.
# FIG. 3: Reversibility of the interaction between hPin1 and fredericamycin A. 209 nM of hPin1 were incubated with 0 (▪) and 0.16 (□) […] fredericamycin A and the remaining PPIase activity of hPin1 was measured before and after micro-separation through a semipermeable membrane using the protease-coupled PPlase assay according to Materials and Methods.
# glioblastoma cells = details: Misra et al. 1982; cited from earlier work
# hCyp18 = molecular target: T2, hCyp18 (Homo sapiens, UniProt P62937); assay: protease-coupled PPIase assay, hCyp18; type: biochemical
# T2 construct: purchased Sigma
# T2 sequence (P62937 whole entry): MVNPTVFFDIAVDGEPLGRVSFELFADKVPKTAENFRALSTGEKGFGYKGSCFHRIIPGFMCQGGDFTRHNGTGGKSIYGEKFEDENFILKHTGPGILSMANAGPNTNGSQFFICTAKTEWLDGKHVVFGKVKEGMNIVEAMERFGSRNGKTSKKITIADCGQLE
# Protocol: as §1
# [1] = Day 7 (before dosing), group 0.34 mg/kg ip Days 16-20
# [2] = Day 12 (before dosing), group 0.34 mg/kg ip Days 16-20
# [3] = Day 18, 0.34 mg/kg ip Days 16-20
# [4] = Day 25, 0.34 mg/kg ip Days 16-20
# [5] = Day 32, 0.34 mg/kg ip Days 16-20
# [6] = Day 14 (before dosing), group 0.34 mg/kg ip Days 16-20
# [7] = Day 21, 0.34 mg/kg ip Days 16-20
# [8] = Day 28, 0.34 mg/kg ip Days 16-20
smiles,measurement,setting,value
"O=C1c2c(O)ccc(O)c2C(=O)c2c(NCCNCCO)ccc(NCCNCCO)c21 [Mitox, reference compound]",mice that died after 32 days,"0.34 mg/kg ip Days 16-20, ten mice per group",None
same,Mean Mouse Weight,[1],27.98 g
same,Mean Mouse Weight,[2],28.32 g
same,Mean Mouse Weight,[3],27.39 g
same,Mean Mouse Weight,[4],27.38 g
same,Mean Mouse Weight,[5],28.04 g
same,Mean Mouse Weight,"Day −6 (before dosing), group 0.34 mg/kg ip Days 16-20",26.36 g
same,Tumor Volume,DU-145 prostate tumor; [1],0.02 cm^3
same,Tumor Volume,DU-145 prostate tumor; [2],0.05 cm^3
same,Tumor Volume,DU-145 prostate tumor; [6],0.09 cm^3
same,Tumor Volume,DU-145 prostate tumor; [3],0.19 cm^3
same,Tumor Volume,DU-145 prostate tumor; [7],0.22 cm^3
same,Tumor Volume,DU-145 prostate tumor; [4],0.37 cm^3
same,Tumor Volume,DU-145 prostate tumor; [8],0.53 cm^3
same,Tumor Volume,DU-145 prostate tumor; [5],0.72 cm^3
C/C=C/C=C/c1cc2cc3c(c(O)c2c(=O)[nH]1)C1(CC3)C(=O)c2c(O)c3c(c(O)c2C1=O)C(=O)C(OC)=CC3=O (stereo not drawn) [fredericamycin A],IC50,hFKBP12,6200 ± 1700 nM
same,death of mice,"0.67 mg/kg ip from Day 16, ten mice per group",All of the mice receiving 0.67 mg/kg of Fred A died by about Day 17
same,number of mice that lived until Day 32,"mouse, in vivo",2
same,Ki,"hPin1; 6.0 nM Pin1, 5 min pre-incubation, 35 mM HEPES pH 7.8, substrate Ac-Ala-Ala-Ser(P)-Pro-Arg-pNA, competitive tight-binding fit, read-out: Ki value for inhibition of the PPIase activity of hPin1",820 ± 608 nM
same,time dependency of inhibition of hPin1 PPIase activity,"hPin1; 6.0 nM hPin1, 1 μM inhibitor, 0-30 min incubation",no time dependency of inhibition within 30 min
same,remaining hPin1 PPIase activity,"hPin1; 209 nM hPin1, 0.16 mM inhibitor, before micro-concentration",23%
same,hPin1 reactivation after micro-concentration through semi-permeable membrane (reversibility),"hPin1; 209 nM hPin1, 0.16 mM inhibitor, buffer replaced 3 times, compared to inhibitor-free enzyme control",97.5%
same,preference for the parvulin hPin1 over the other tested PPIases,hPin1; hPin1 versus hCyp18 and hFKBP12,6- to 7 fold
same,IC50,hPin1; protease-coupled PPIase assay,890 ± 50 nM
same,anti-tumor activity against glioblastoma cells,glioblastoma cells,"comparable to 1,3-bis(2-chloroethyl)-1-nitrosourea (BCNU)"
same,IC50,hCyp18,5100 ± 2000 nM
same,Tumor Volume,DU-145 prostate tumor; [1],0.02 cm^3
same,Tumor Volume,"DU-145 prostate tumor; Day 7 (before dosing), group 0.67 mg/kg ip Days 16-20",0.04 cm^3
same,Tumor Volume,DU-145 prostate tumor; [2],0.05 cm^3
same,Tumor Volume,"DU-145 prostate tumor; Day 12 (before dosing), group 0.67 mg/kg ip Days 16-20",0.04 cm^3
same,Tumor Volume,DU-145 prostate tumor; [6],0.05 cm^3
same,Tumor Volume,"DU-145 prostate tumor; Day 14 (before dosing), group 0.67 mg/kg ip Days 16-20",0.07 cm^3
same,Tumor Volume,DU-145 prostate tumor; [3],0.03 cm^3
same,Tumor Volume,"DU-145 prostate tumor; Day 18, 0.67 mg/kg ip Days 16-20",0.05 cm^3
same,Tumor Volume,DU-145 prostate tumor; [7],0.11 cm^3
same,Tumor Volume,DU-145 prostate tumor; [4],0.11 cm^3
same,Tumor Volume,DU-145 prostate tumor; [8],0.22 cm^3
same,Tumor Volume,DU-145 prostate tumor; [5],0.35 cm^3
same,reduction of mean tumor volume as compared to the DMSO or Mitox controls,"DU-145 prostate tumor; FIG. 4, DU-145 tumor bearing scid mice, ip Days 16-20",50%
